Data on five compounds can be found in patent publication US20230346808A1, “CANNABINOID FORMULATIONS AND METHODS OF USE” (PreveCeutical Medical Inc., priority 2020, published 2023).

“And” between values parts separate entries of the source, which are not always exact repeats. Identical values can stand only once.

Series [1] has as its system explanted nasal mucosal tissue. Put plainly: Ex vivo deposition into nasal mucosa, vertical Franz-diffusion apparatus. The series is classed as in vitro ADME, human. The settings on record: for Deposition of key cannabinoids in µg/g of nasal tissue, Decarboxylated (average of batches D19 & D23): 300 µL decarboxylated sol-gel; for Deposition of key cannabinoids in µg/g of nasal tissue, Decarboxylated (average of batches D19 & D23) / Deposition of key cannabinoids in µg/g of nasal tissue, Native (average of batches N22 & 23): 8 hours post-application, 34° C.; for Deposition of key cannabinoids in µg/g of nasal tissue, Native (average of batches N22 & 23): 300 µL native sol-gel. The protocol:
Ex vivo permeation studies were carried out using vertical Franz-diffusion apparatus equipped with temperature-controlled jackets set at 34° C. ± 1° C. Nasal mucosa was taken from middle-turbinate of patients undertaking surgery at Greenslopes Private Hospital. Mucosal tissue was cleaned of blood and bone, then immersed in phosphate-buffered saline (PBS; pH 7.4) at room temperature. The prepared nasal membrane was then sandwiched between donor and receptor cells with the dorsal side of the tissue facing the donor compartment and the ventral side facing the receiver compartment. The receptor cells were filled with 12 mL of PBS and then 300 µL of native or decarboxylated sol-gel samples placed in the donor compartment, ensuring that formulations spread over the entire tissue. To prevent evaporation of the samples, donor cells were covered with Parafilm®. Samples from the receptor cell were taken and volume replaced with PBS at 0, 1, 2, 4, 6 and 8-hours following sol-gel application. Collected tissue samples were then rinsed with MilliQ water after 8 hours, blotted dry with filter paper, wrapped with aluminium foil to protect from light and stored at -80° C. until required for further analysis.
On the day of analysis, the tissue samples were allowed to thaw and were blotted dry using filter paper, cut into small pieces, frozen with liquid nitrogen and ground with a mortar and pestle. Cannabis was extracted from the powdered tissue with ethanol (1 mL) and gently agitated for 12 hours at room temperature. Samples were then transferred to Eppendorf tubes and centrifuged at 10000 rpm for 10 minutes. The supernatant was collected and 100 µL of acetonitrile added to each tube then supernatant collected and again 100 µL was added and stored at -20° C. overnight. The following day each sample was allowed to thaw and centrifuged at 10000 rpm for 10 minutes with supernatant collected and prepared for quantitative analysis using the HPLC method described above in Example 5. Samples of Cannabis sol-gels from native (N22 and N23) and decarboxylated (D19 and D23) extracts were used in this study.
The tissue deposition of cannabinoids was measured per gram of nasal mucosa, with studies based on tissue availability from patients undergoing sinus surgery, and key cannabinoids detected presented in Table 8. The data shown is an average of the 2 native or 2 decarboxylated batches. The amount of sol-gel administered (300 µL) accounts for 3000 µg of cannabinoid content which is a surplus amount (based on micelles, this approximately correlates to the following: for native sol-gels maximum of […] CBDA, 1200 µg THCA; for decarboxylated sol-gels maximum of 960 µg CBDA, 45 µg THCA).

The subject of series [2] is human nasal mucosa. Conditions: 2 µL applied, media harvested daily for five days, n = 3.
Procedure: Lactate dehydrogenase (LDH) is an oxidoreductase enzyme found in living cells that is released into the cytoplasm upon cell lysis that is under stressor conditions. LDH is detected via a colourimetric cytotoxicity assay that provides a measure of membrane integrity, with high titres of LDH being an indicator of acute cellular damage/toxicity (Lim et al, International Forum of Allergy & Rhinology, 2012, 2(1): p 63-68). […] Acute toxicity was assessed in freshly explanted human nasal tissue.
Human specimens were dissected, connective tissue, debris or blood were removed utilising a 15 blade scalpel and divided into 2-3 mm x 2-3 mm x 1-2 mm sections. […]
LDH was used as the biomarker and analysed using the CytoTox 96® Non-Radioactive cytotoxicity assay kit following manufacturer instructions (Promega, Madison WI). […] After the end of the study, the absorbance of each sample was obtained at 490 nm using FLUOstar Omega Spectrophotometer (BMG Labtech, Offenburg, Germany). The extracellular LDH level was calculated as changes in the LDH levels of tissues treated with a formulation versus tissues treated with PBS. Statistical differences were analysed by one-way ANOVA followed by Dunnet’s multiple comparison test using GraphPad Prism software (v 7.03).
Series [3] has as its system human nasal mucosa. Conditions: tissue from end of the 5 day study.
Procedure: Untreated tissue samples and post-treated tissue samples from the end of the study were preserved from each well for histological evaluation. Each sample was fixed using 4% formaldehyde and stored at 4° C. overnight. On the following day, tissues were dipped in 20% sucrose overnight and embedded in OCT, frozen at -20° C. and cryo-sectioned into slices. Staining was performed with hematoxylin and eosin for 1 minute and stained samples dehydrated in ethanol, defatted in xylene and cover-slipped for histological examination.
Tissues were examined for morphological changes.

Regarding `C=C(C)[C@@H]1CCC(C)=C[C@H]1c1c(O)cc(CCCCC)cc1O` [CBD, cannabidiol], in series [1], the “Deposition of key cannabinoids in µg/g of nasal tissue, Decarboxylated (average of batches D19 & D23)” value (“Deposition … (average of batches D19 & D23)” for short) was 3.56 µg/g and 3.56 ± 1.67 µg/g; the “Deposition of key cannabinoids in µg/g of nasal tissue, Native (average of batches N22 & 23)” value (“Deposition … (average of batches N22 & 23)” for short) is 3.47 µg/g and 3.47 ± 1.53 µg/g.
For the compound `C=C(C)[C@@H]1CCC(C)=C[C@H]1c1c(O)cc(CCCCC)c(C(=O)O)c1O` [CBDA, Cannabidiolic acid], in series [1], the “Deposition … (average of batches D19 & D23)” value is 10.9 µg/g and 10.9 ± 1.81 µg/g; the “Deposition … (average of batches N22 & 23)” value is 3.14 µg/g and 3.14 ± 2.98 µg/g. Moreover, the “Higher tissue level from decarboxylated versus native sol-gels” value in series [1] (decarboxylated versus native extract infused sol-gels) is “ca. 3 fold”.
In the case of `CCCCCc1cc(O)c2c(c1)OC(C)(C)[C@@H]1CCC(C)=C[C@@H]21` [THC, delta-9-tetrahydrocannabinol], in series [1], the “Deposition … (average of batches D19 & D23)” value was 4.19 µg/g and 4.19 ± 2.20 µg/g; the “Deposition … (average of batches N22 & 23)” value is 3.54 µg/g and 3.54 ± 1.74 µg/g.
`CCCCCc1cc2c(c(O)c1C(=O)O)C1C=C(C)CCC1C(C)(C)O2` (centres unmarked) [THCA, Δ^9-Tetrahydrocannabinolic acid]: in series [1], the “Deposition … (average of batches D19 & D23)” value is 11.3 µg/g and 11.3 ± 10.2 µg/g; the “Deposition … (average of batches N22 & 23)” value was 5.73 µg/g and 5.73 ± 0.51 µg/g.
For the compound `O=S(=O)([O-])[O-].[Zn+2]` [ZnSO4, Zinc sulfate], in series [2], the “Extracellular LDH levels versus PBS negative control” value is recorded as “significant elevation in LDH levels at day 2”. The “Morphological changes of epithelial and sub epithelial layers of nasal mucosa” value in series [3] is “gross cell and tissue structural damage”.
